Test system: trypsin
Assay: Petri plate assay detecting zones of protease protection by protease inhibitors or bacterial strains after flooding with trypsin
Assay type: biochemical
Settings: for relative size of zone of inhibition (diffusion zone): casein plates, to a lesser degree gelatin plates, compared among leupeptin, aprotinin and α-2-macroglobulin
Excerpt: Because the protocol is destructive to the plate assayed, a duplicate or replica plate is generated and retained for identification and further analysis of the strains using methods known to those skilled in the arts. The initial step is the exposure of the protease detection plate to a protease inhibitor or bacterial growth. Either commercially available protease inhibitor peptides or growth of bacterial strains on the protease detection plates can be detected. […] The bacterial strains Photorabdus (Xenorhabdus) luminescens strain Hm primary and secondary forms where the secondary and not the primary form is known to secrete a protease inhibitor and the other strains are negative controls (Wee et al. 2000, A new broad-spectrum protease inhibitor from the entomopathogenic bacterium Photorhabdus luminescens. Microbiology 146: 3141-3147), Citrobacter freundii (ATCC #33128), Staphylococcus aureus, S. epidermidis and Enterococcusfaecalis are allowed to grow two days at 30° C. in air.
The base media can be any microbiological media designed to facilitate the growth of cultivable microorganism; different media can be used to favor different strains as appropriate (Kreig, 1981, Chapter 8, Enrichment and Isolation, p. 112-142 in Manual of Methods for General Bacteriology, Gerhardt et al., eds, American Society for Microbiology, Washington, D.C.). Variations on the type of protease being targeted, the protease substrate and cognate inhibitors are shown in Table 1 and used as a guide in the modification of media. A casein base media based on that of Vijayaraghavan and Vincent (2013, A simple method for the detection of protease activity on agar plates using bromochresol green dye, J. Biochem. Tech. 4: 628-630), which contained 5 grams of peptone, 1.5 grams of yeast extract, 1.5 grams of sodium chloride per liter with, except that the casein 0.5% is used (instead of 1.0%) and dissolved as described by Montville (1983, Dual-substrate plate diffusion assay for proteases, Appl Environ Microbiol 45: 200-204) using 0.02 N NaOH. When bromochresol green (BCG) is added directly to the media, 0.0015% is used. BCG preincorporated into the media as well as post incubation addition of a BCG dye reagent containing 0.028% BCG dissolved in 0.56% (w/v) succinic acid, 0.1% (w/v) NaOH (Vijayaraghavan and Vincent; 2013) with 0.6% Brij-35 and then acidified to pH 4.2 can also be used following exposure to a protease inhibitor or bacterial growth and subsequent exposure to a protease. After staining and then destaining in water the by completely removing the agar from the lower plastic, the plates are observed for the presence and absence of protein. Ponseau S staining by flooding the plate with 5 ml of the stain containing 0.1% Ponseau S (PS; Sigma, St. Louis, Mo.) and 5% acetic acid in water for 1-2 hrs and then marking the agar with a 23 ga syringe needle dipped in India ink at a corresponding register marked on the plastic petri plate, removing the agar from the plate and destaining overnight in water before observing them and is highly sensitive.
A gelatin based media (Medina and Baresi 2007, Rapid identification of gelatin and casein hydrolysis using TCA, J Microbiol Meth 69: 391-393) which uses 40 grams per liter of tryptic soy agar powder without glucose (Becton Dickinson, Sparks, Md.) modified to contain 8 g of gelatin (instead of 16 g) per liter may be preferable for certain organisms depending upon their growth requirements and is used as is appropriate. Approximately 5 ml of 20% trichloroacetic acid (TCA; Thermo Fisher, Waltham, Mass.) was used for protein precipitation per petri plate. This media can also be combined with preincorporated BCG, or post-incubation BCG dye reagent or Ponseau S, each as described above for the casein plates. […]

[1] = BCG-containing plates further stained with PS, 0.625 mg/ml trypsin for casein, 0.0625 mg/ml for gelatin (FIG. 2B)
[2] = casein plates with preincorporated BCG, before PS staining (FIG. 2A)

Molecule	visualization of zone of protease protection [1]	visualization of zone of protease protection [2]	relative size of zone of inhibition (diffusion zone)	diffusion distance of inhibitor on plate (casein BCG plate, PS stained (FIGS. 5A and 5B))
aprotinin [Aprotonin]	able to visualize	faintly visualize	–	–
CC(C)C[C@H](NC(=O)[C@@H](O)[C@H](N)Cc1ccccc1)C(=O)O [bestatin]	no staining	–	–	–
CC(=O)N[C@@H](CC(C)C)C(=O)N[C@@H](CC(C)C)C(=O)N[C@H](C=O)CCCNC(=N)N [Leupeptin, leupeptin]	able to visualize	–	notably larger	–
α-2-macroglobulin (protein, UniProt P01023 24-1474, looked up) Alpha-2-macroglobulin: SVSGKPQYMVLVPSLLHTETTEKGCVLLSYLNETVTVSASLESVRGNRSLFTDLEAENDVLHCVAFAVPKSSSNEEVMFLTVQVKGPTQEFKKRTTVMVKNEDSLVFVQTDKSIYKPGQTVKFRVVSMDENFHPLNELIPLVYIQDPKGNRIAQWQSFQLEGGLKQFSFPLSSEPFQGSYKVVVQKKSGGRTEHPFTVEEFVLPKFEVQVTVPKIITILEEEMNVSVCGLYTYGKPVPGHVTVSICRKYSDASDCHGEDSQAFCEKFSGQLNSHGCFYQQVKTKVFQLKRKEYEMKLHTEAQIQEEGTVVELTGRQSSEITRTITKLSFVKVDSHFRQGIPFFGQVRLVDGKGVPIPNKVIFIRGNEANYYSNATTDEHGLVQFSINTTNVMGTSLTVRVNYKDRSPCYGYQWVSEEHEEAHHTAYLVFSPSKSFVHLEPMSHELPCGHTQTVQAHYILNGGTLLGLKKLSFYYLIMAKGGIVRTGTHGLLVKQEDMKGHFSISIPVKSDIAPVARLLIYAVLPTGDVIGDSAKYDVENCLANKVDLSFSPSQSLPASHAHLRVTAAPQSVCALRAVDQSVLLMKPDAELSASSVYNLLPEKDLTGFPGPLNDQDNEDCINRHNVYINGITYTPVSSTNEKDMYSFLEDMGLKAFTNSKIRKPKMCPQLQQYEMHGPEGLRVGFYESDVMGRGHARLVHVEEPHTETVRKYFPETWIWDLVVVNSAGVAEVGVTVPDTITEWKAGAFCLSEDAGLGISSTASLRAFQPFFVELTMPYSVIRGEAFTLKATVLNYLPKCIRVSVQLEASPAFLAVPVEKEQAPHCICANGRQTVSWAVTPKSLGNVNFTVSAEALESQELCGTEVPSVPEHGRKDTVIKPLLVEPEGLEKETTFNSLLCPSGGEVSEELSLKLPPNVVEESARASVSVLGDILGSAMQNTQNLLQMPYGCGEQNMVLFAPNIYVLDYLNETQQLTPEIKSKAIGYLNTGYQRQLNYKHYDGSYSTFGERYGRNQGNTWLTAFVLKTFAQARAYIFIDEAHITQALIWLSQRQKDNGCFRSSGSLLNNAIKGGVEDEVTLSAYITIALLEIPLTVTHPVVRNALFCLESAWKTAQEGDHGSHVYTKALLAYAFALAGNQDKRKEVLKSLNEEAVKKDNSVHWERPQKPKAPVGHFYEPQAPSAEVEMTSYVLLAYLTAQPAPTSEDLTSATNIVKWITKQQNAQGGFSSTQDTVVALHALSKYGAATFTRTGKAAQVTIQSSGTFSSKFQVDNNNRLLLQQVSLPELPGEYSMKVTGEGCVYLQTSLKYNILPEKEEFPFALGVQTLPQTCDEPKAHTSFQISLSVSYTGSRSASNMAIVDVKMVSGFIPLKPTVKMLERSNHVSRTEVSSNHVLIYLDKVSNQTLSLFFTVLQDVPVRDLKPAIVKVYDYYETDEFAIAEYNAPCSKDLGNA	able to visualize	faintly visualize	smallest diffusion zone	diffused only a short distance
